Experiments:
GSK-J4 + Foretinib = compound: CCOC(=O)CCNc1cc(N2CCc3ccccc3CC2)nc(-c2ccccn2)n1 [GSK-J4] + COc1cc2c(Oc3ccc(NC(=O)C4(C(=O)Nc5ccc(F)cc5)CC4)cc3F)ccnc2cc1OCCCN1CCOCC1 [Foretinib] (partner 0.25 µM); test: relative viability (nuclei count vs DMSO), 5 days (fraction); higher = more cells survive
Summary of the method: (§1)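 Lung cancer cell lines were seeded in 1536-well plates and dosed by pin tool the next day, with either a single drug or a fixed anchor-drug dose combined with five library-drug doses (not always all listed) spaced in √10 steps. Five days later, one step fixed the cells and stained their nuclei (final 0.05% Triton X-100, 1% formaldehyde, 1 ug/ml Hoechst), and nuclei were counted on 4× images. Relative viability is the nuclei count in treated wells divided by the count in vehicle wells, and each value is the median of duplicate plates.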

AZ3146 + Tozasertib = compound: CN1CCC(CC1)OC2=CC(=C(C=C2)NC3=NC=C4C(=N3)N(C(=O)N4C)C5CCCC5)OC [AZ3146] + Cc1cc(Nc2cc(N3CCN(C)CC3)nc(Sc3ccc(NC(=O)C4CC4)cc3)n2)n[nH]1 [Tozasertib] (partner 0.1 µM); test: as above
Summary of the method: as §1

Cell Line	relative viability (GSK-J4 + Foretinib; first compound 0.5 µM)	relative viability (GSK-J4 + Foretinib; first compound 1.581 µM)	relative viability (GSK-J4 + Foretinib; first compound 5 µM)	relative viability (GSK-J4 + Foretinib; first compound 15.81 µM)	relative viability (GSK-J4 + Foretinib; first compound 50 µM)	relative viability (AZ3146 + Tozasertib; first compound 0.08 µM)	relative viability (AZ3146 + Tozasertib; first compound 0.253 µM)	relative viability (AZ3146 + Tozasertib; first compound 0.8 µM)	relative viability (AZ3146 + Tozasertib; first compound 2.53 µM)	relative viability (AZ3146 + Tozasertib; first compound 8 µM)
RERF-LC-KJ	0.824	0.796	0.882	0.803	0.852	0.465	0.497	0.403	0.294	0.25
NCI-H727	0.808	0.835	1.03	0.99	0.518	0.546	0.495	0.455	0.575	0.439
NCI-H1734	0.821	0.787	0.849	0.707	0.619	0.225	0.264	0.279	0.275	0.29
NCI-H2126	1.06	1.05	1.14	0.889	0.795	0.71	0.803	0.722	0.378	0.234
NCI-H23	0.999	0.885	0.942	0.802	0.847	0.315	0.338	0.362	0.301	0.338
EPLC-272H	0.723	0.547	0.819	0.514	0.26	–	0.237	0.184	0.217	0.138
NCI-H2023	0.759	0.737	1.11	0.735	0.709	0.331	0.328	0.171	0.157	0.147
NCI-H647	1.1	0.855	1.07	1.2	1.09	0.236	0.358	0.143	0.191	0.157
NCI-H661	0.983	0.995	0.86	0.969	0.805	0.359	0.362	0.357	0.347	0.358
NCI-H1975	0.947	0.785	0.732	0.95	1.04	0.684	0.732	0.275	0.208	0.227
BEN	0.857	0.593	–	0.588	0.53	0.402	0.509	0.493	0.512	0.406
EBC-1	0.0939	0.0899	0.0897	0.0966	0.103	–	–	–	–	–
NCI-H522	–	–	–	–	–	0.533	0.512	0.582	0.455	0.587
NCI-H1437	1.29	0.715	1.23	1.24	0.766	0.355	0.42	0.394	0.354	0.265
NCI-H1666	0.998	0.742	1.08	0.907	0.749	0.473	0.527	0.442	0.463	0.338
NCI-H2085	0.697	0.882	0.861	1.05	0.971	0.747	0.786	0.727	0.587	0.508
LXF-289	0.974	0.93	1.01	0.929	0.924	0.194	0.189	0.158	0.216	0.189
NCI-H322M	1.01	0.884	1.27	0.815	0.712	0.455	0.466	0.439	0.495	0.509
NCI-H1648	–	–	–	–	–	–	0.303	0.54	0.58	0.406

Cell Line	relative viability (GSK-J4 + Foretinib; first compound 0.5 µM)	relative viability (GSK-J4 + Foretinib; first compound 1.581 µM)	relative viability (GSK-J4 + Foretinib; first compound 5 µM)	relative viability (GSK-J4 + Foretinib; first compound 15.81 µM)	relative viability (GSK-J4 + Foretinib; first compound 50 µM)	relative viability (AZ3146 + Tozasertib; first compound 0.08 µM)	relative viability (AZ3146 + Tozasertib; first compound 0.253 µM)	relative viability (AZ3146 + Tozasertib; first compound 0.8 µM)	relative viability (AZ3146 + Tozasertib; first compound 2.53 µM)	relative viability (AZ3146 + Tozasertib; first compound 8 µM)
LU99A	0.731	0.78	–	0.809	0.523	0.279	0.269	0.248	0.238	0.245
NCI-H650	0.972	1.01	0.686	0.941	0.712	0.491	0.769	0.75	0.794	0.509
PC-14	0.902	0.832	0.794	0.926	0.963	0.33	0.589	0.543	0.386	0.0776
HARA	0.863	–	–	0.805	0.751	0.115	0.15	0.0956	0.0781	0.0801
NCI-H1944	0.934	0.872	1.01	0.747	0.759	0.219	0.241	0.246	0.235	0.224
NCI-H1650	1.07	0.456	1.18	1.03	0.949	0.345	0.349	0.242	0.314	0.255
NCI-H2342	1.02	1.02	1.11	1.01	1.11	0.329	0.654	0.518	0.505	0.353
NCI-H1299	1.06	1.03	0.994	1.07	1.11	–	–	–	–	–
SW 900	0.681	0.836	1.05	0.591	0.431	0.466	0.625	0.399	0.326	0.333
IA-LM	1.09	1.15	1.32	1.16	0.334	–	–	–	–	–
LK-2	1.26	–	1.31	0.794	0.805	0.175	0.186	0.188	0.157	0.196
HCC-44	–	–	–	–	–	0.502	0.944	0.904	0.372	0.315
CAL-12T	1.11	0.703	1.11	1.04	1.02	0.263	0.3	0.209	0.247	0.235
NCI-H2405	1.06	0.948	–	0.98	1.04	0.609	0.784	0.63	0.577	0.397
NCI-H1395	0.937	0.983	0.865	0.973	0.946	0.647	0.832	0.888	0.791	0.522
A549	0.84	0.874	0.907	0.911	0.828	–	–	–	–	–
201T	1.1	1.09	1.07	0.923	1.06	0.612	0.858	0.837	0.651	0.473
NCI-H358	0.677	0.684	0.639	0.616	0.631	0.0884	0.107	0.105	0.123	0.12

— the supplement of paper PMC10307832
